# Measured values reported in patent publication US12643935B2, “PD-L1 binding peptides” (UNIVERSITY OF SOUTHERN CALIFORNIA, priority 2020, dated 2026).
# Entries after “also recorded” stand apart in the source; their conditions may differ.
# What was measured:
# [1] = molecular target: T1, mouse PD-L1 (mPD-L1) (Mus musculus, UniProt Q9EP73); assay: Radiolabeled [35S] peptide binding assay on mPD-L1; conditions: [35S]-labeled peptide
# T1 construct: The expression construct for mPD-L1 consisted of its extracellular domain (from A18 to H239) with a methionine added to the N-terminus; hexahistidine tag (C); made in house; host or cells: E. coli BL21 (DE3)
# T1 sequence (Q9EP73 with tags, fused parts or gaps): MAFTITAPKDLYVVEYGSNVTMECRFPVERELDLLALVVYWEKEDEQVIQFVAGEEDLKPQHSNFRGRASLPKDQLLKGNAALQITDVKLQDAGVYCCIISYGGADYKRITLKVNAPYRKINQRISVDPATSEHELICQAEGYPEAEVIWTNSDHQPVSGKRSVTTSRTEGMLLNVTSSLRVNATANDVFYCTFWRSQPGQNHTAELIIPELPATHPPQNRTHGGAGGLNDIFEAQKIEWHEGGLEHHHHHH
# Method: (§1) SPAM Peptide Selectively Binds to hPD-L1. SPAM was also tested for binding specificity towards mouse PD-L1 (mPD-L1) and human PD-L2 (hPD-L2) using radioactive binding assays. SPAM peptide mRNA was translated in vitro in the presence of [^35S]-methionine to generate [^35S]-labeled SPAM peptide.
# (§2) [^35S]-labeled peptides were translated as described above by including 2 μCi labeled methionine (Perkin Elmer) per 10 pmol of template in the translation reaction. Each peptide was tested with a […] (for X9-library derived peptides) (SEQ ID NO: 11) or a […] (for X17-library derived peptides) (SEQ ID NO: 12) C-terminal sequence. […] The supernatant was removed and was counted. The beads were subsequently washed three times with 1 mL of blocking buffer and the washes were also counted. Finally, the beads were resuspended in 1 mL of blocking buffer and were counted separately. The ratio of the counts remaining on the beads to the total counts added to the binding reaction (the sum of the counts for supernatant, washes, and beads) was calculated to determine the percent bound.
# [2] = molecular target: T2, human PD-L2 (hPD-L2) (Homo sapiens, UniProt Q9BQ51); assay: Radiolabeled [35S] peptide binding assay on hPD-L2*; conditions: [35S]-labeled peptide
# T2 construct: The hPD-L2* vector included amino acids L20-T220, an Avi Tag and a hexahistidine tag; hexahistidine tag; made in house; host or cells: Expi293F
# T2 sequence (Q9BQ51 20-220): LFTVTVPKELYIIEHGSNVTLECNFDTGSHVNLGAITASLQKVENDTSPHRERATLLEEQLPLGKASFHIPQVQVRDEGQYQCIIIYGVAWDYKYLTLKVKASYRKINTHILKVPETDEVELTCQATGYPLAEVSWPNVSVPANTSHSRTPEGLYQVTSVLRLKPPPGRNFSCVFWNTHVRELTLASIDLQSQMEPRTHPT
# Method: as §1, §2
# [3] = Serum stability of ROX-SPAM by HPLC; assay type: in vitro ADME; conditions: 25% human serum, 37° C., up to five hours
# Method: We first tested SPAM peptide stability by performing an HPLC-based assay to test if SPAM is degraded by human serum. We incubated ROX-labeled SPAM with 25% human serum at 37° C., took aliquots at different time points, then analyzed the products using HPLC.
# At times 0, 15, 30, 120 and 300 min, 40 μL was removed and protein precipitated by the addition of 80 μL ethanol. Samples were centrifuged for 10 min at 16,000×g and the supernatant removed for HPLC analysis. A total of 100 μL volume was injected in a HPLC gradient of 10^−95% Buffer B over 15 minutes (Buffer A: dH2O with 0.1% (v/v) TFA, Buffer B: CH3CN+0.1% (v/v) TFA). Detection was performed at 570 nm.
# [4] = molecular target: T3, hPD-L1/mPD-1 interaction (Homo sapiens, UniProt Q9NZQ7); assay: ELISA/IP assay of hPD-L1/mPD-1 interaction; assay type: biochemical; conditions: 10 μM SPAM
# T3 construct: designed from A18 to T239 with a methionine added to the N-terminus; hexahistidine tag (C); made in house; host or cells: E. coli BL21 (DE3)
# T3 sequence (Q9NZQ7 with tags, fused parts or gaps): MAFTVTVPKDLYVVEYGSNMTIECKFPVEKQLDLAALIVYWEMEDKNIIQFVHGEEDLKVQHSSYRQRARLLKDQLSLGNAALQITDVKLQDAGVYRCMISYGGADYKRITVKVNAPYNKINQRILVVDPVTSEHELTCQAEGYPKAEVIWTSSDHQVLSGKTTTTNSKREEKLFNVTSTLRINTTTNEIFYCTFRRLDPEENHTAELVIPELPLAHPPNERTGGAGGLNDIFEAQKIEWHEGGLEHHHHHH
# Method: An ELISA-based activity assay was employed to measure the potency of SPAM peptide inhibition of the hPD-L1/PD-1 interaction (FIG. 4C-D). In this assay, biotinylated hPD-L1 was immobilized on streptavidin magnetic beads and incubated with various concentrations of SPAM peptide, followed by incubation with HA-tagged mPD-1 and detection with anti-HA secondary antibody.
# For ELISA/IP assays, 20 L of MyOne™ Streptavidin T1 magnetic beads Dynabeads™ (Thermo Fisher Scientific) were loaded with 100 nM biotinylated hPD-L1 in assay buffer (20 mM HEPES-KOH pH 7.5, 150 mM NaCl, 0.2% (v/v) Tween-20, 1 mg/mL BSA and 50 μg/mL tRNA) at 4° C. The beads were subsequently washed and incubated with either DMSO or different concentrations of SPAM peptide (0.1, 1 or 10 μM) in the assay buffer for 1 h at 4° C. followed by adding HA-tagged mPD-1 (100 nM) for 1 h at 4° C. The samples were then washed and incubated with a 1:5,000 dilution of HRP conjugated anti-HA antibody (Pierce HA Antibody, Rockford. Il, USA) for 1 h at 4° C. The beads were washed again and developed with TMB Substrate Kit (Thermo Scientific) for 30 minutes and the reactions stopped by adding 100 L of […] sulfuric acid. The absorbance at 450 nm was measured on a Biotek Synergy H1 Hybrid Multi-Mode Microplate Reader.
# [5] = molecular target: T4, CHO-mPD-L1 cells which express mPD-L1 (Mus musculus, UniProt Q9EP73); assay: Antibody competition by flow cytometry on CHO-mPD-L1 cells; assay type: cell-based; conditions: pre-treatment 0-20 μM, 50 nM antibody
# T4 construct: expressed in transfected cells; host or cells: CHO
# T4 sequence (Q9EP73 19-290): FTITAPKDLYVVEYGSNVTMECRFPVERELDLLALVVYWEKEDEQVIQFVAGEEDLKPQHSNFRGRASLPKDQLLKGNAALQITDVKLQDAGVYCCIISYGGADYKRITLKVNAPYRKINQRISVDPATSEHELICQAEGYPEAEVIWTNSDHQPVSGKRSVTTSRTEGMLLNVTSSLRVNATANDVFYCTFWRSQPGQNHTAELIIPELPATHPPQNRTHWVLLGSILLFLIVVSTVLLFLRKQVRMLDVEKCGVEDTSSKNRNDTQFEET
# Method: We performed similar experiments with CHO-mPD-L1 cells which express mPD-L1 to determine if this effect was specific to hPD-L1 expression. We have developed two cross-reactive anti-hPD-L1/mPD-L1 antibodies, 16373 and 16377. These antibodies were labeled with Fluorescein, titrated against CHO-hPD-L1 and CHO-mPD-L1 cells (FIG. 12B-C) and subjected to competition experiments as described above.
# The cells were washed once with cold serum free DMEM and incubated with 1 nM FAM-Atezolizumab, 10 nM FAM-Avelumab, 50 nM FAM-16373, or 50 nM FAM-16377 in serum free DMEM at 4° C. for 30 min. Cells were then washed three times with cold serum free DMEM. Cells were subsequently processed by flow cytometry with a BD FACSCalibur system using the FL1 channel. FlowJo v10.1 was used to gate to the major population and median FL1 fluorescence reported.
# [6] = molecular target: hPD-L1 (Homo sapiens, UniProt Q9NZQ7); assay: Radiolabeled [35S] peptide binding assay on immobilized hPD-L1; design: designed from A18 to T239 with a methionine added to the N-terminus; hexahistidine tag (C); made in house; conditions: hPD-L1 on streptavidin agarose
# hPD-L1, sequence (Q9NZQ7 with tags, fused parts or gaps): as the sequence (Q9NZQ7 with tags, fused parts or gaps) above
# Method: as §2
structure (smiles),measurement,setting,value
C#CC[C@H](NC(=O)CNC(=O)[C@H](CO)NC(=O)[C@H](C)NC(=O)[C@H](Cc1ccc(O)cc1)NC(=O)[C@H](Cc1c[nH]cn1)NC(=O)[C@H](CC(C)C)NC(=O)[C@@H](NC(=O)[C@H](Cc1c[nH]c2ccccc12)NC(=O)[C@H](Cc1ccccc1)NC(=O)[C@H](CCCCN)NC(=O)[C@H](CC(N)=O)NC(=O)[C@H](CC(C)C)NC(=O)[C@@H](NC(=O)[C@H](Cc1c[nH]cn1)NC(=O)[C@H](CC(=O)O)NC(=O)[C@H](CC(C)C)NC(=O)[C@H](Cc1ccccc1)NC(=O)[C@@H](NC(=O)[C@@H]1CCCN1C(=O)[C@@H](N)CCSC)[C@@H](C)CC)[C@@H](C)CC)[C@@H](C)CC)C(N)=O (stereo in doubt) [SPAM],binding to mPD-L1,[1],not pulled-down; also recorded: essentially no binding; also recorded: no significant binding
same,binding to hPD-L2,[2],no significant binding; also recorded: essentially no binding
same,degradation in human serum (HPLC),[3],stable
same,inhibition of mPD-1 binding to hPD-L1,[4],almost completely disrupted; also recorded: almost completely inhibits
same,blocking of Fluorescein-16373 and Fluorescein-16377 in CHO-mPD-L1 cells,[5],blocking was absent
same,[35S]-labeled peptide pull-down by immobilized hPD-L1,[6],efficiently pulled-down
